Data as given in patent US5527781A, “4-O-(aminoglycosyl)- or 4,6-di-O-(aminoglycosyl)-2,5-dideoxy-5,5-difluorostreptamine derivatives” (Zaidan Hojin Biseibutsu Kagaku Kenkyu Kai, priority 1990, dated 1996).
Converted amounts (≈) assume the structure as drawn. “Also recorded” adds a separate entry of the source.

Columns and labels:
bacteria = conditions: literature / earlier filings; cited from earlier work
[1] = tested on: Escherichia coli K-12 LA 290 R55; experiment: microbe, parasite or virus in culture; format: cell-based; conditions: K12LA290R55; Escherichia coli K-12 LA 290 R55; resistance mechanism ANT(2"); Mueller-Hinton agar, 37° C
Mycobacterium 607 = experiment: MIC, standard serial dilution method; format: cell-based; conditions: Mueller-Hinton agar, 37° C
Escherichia coli JR225 = experiment: microbe, parasite or virus in culture; format: cell-based; conditions: resistance mechanism AAC(3), Mueller-Hinton agar, 37° C
[2] = tested on: Escherichia coli K-12 ML 1629; experiment: microbe, parasite or virus in culture; format: cell-based; conditions: K12ML1629; Escherichia coli K-12 ML 1629; resistance mechanism APH(3')-I; Mueller-Hinton agar, 37° C; read-out: MIC
Proteus rettgeri GN 311 = experiment: MIC, standard serial dilution method; format: cell-based; conditions: Providencia rettgeri, GN311; Proteus rettgeri GN 311; Mueller-Hinton agar, 37° C; read-out: MIC
[3] = tested on: Pseudomonas aeruginosa A3; experiment: MIC, standard serial dilution method; format: cell-based; conditions: Mueller-Hinton agar, 37° C
Serratia marcescens = experiment: MIC, standard serial dilution method; format: cell-based; conditions: Mueller-Hinton agar, 37° C
Providencia sp. Pv 16 = experiment: MIC, standard serial dilution method; format: cell-based; conditions: SP.PV16, resistance mechanism AAC(2'), Mueller-Hinton agar, 37° C
Escherichia coli K-12 R5 = experiment: microbe, parasite or virus in culture; format: cell-based; conditions: K12R5; Escherichia coli K-12 R5; resistance mechanism AAC(6'); Mueller-Hinton agar, 37° C
Bacillus subtilis PCI219 = experiment: MIC, standard serial dilution method; format: cell-based; conditions: Mueller-Hinton agar, 37° C
in vivo = conditions: mouse, iv, pH 7
Excerpt: Further, in order to estimate acute toxicity of the compound of the general formula (I) according to this invention, some examples of the compounds of this invention were independently dissolved in water to prepare aqueous solutions (as adjusted to pH 7 by addition of hydrochloric acid). […] The tested compounds of this invention are expressed by the same abbreviations as in Table 1. […] The comparative compounds as tested are also expressed by the same abbreviations as in Table 1.

[4] = tested on: Pseudomonas aeruginosa GN 315; experiment: MIC, standard serial dilution method; format: cell-based; conditions: GN315; Pseudomonas aeruginosa GN 315; resistance mechanism AAC(6'); Mueller-Hinton agar, 37° C; read-out: MIC
[5] = tested on: Klebsiella pneumoniae 22#3038; experiment: MIC, standard serial dilution method; format: cell-based; conditions: resistance mechanism APH(3')-II, ANT(2"), Mueller-Hinton agar, 37° C
[6] = tested on: Escherichia coli JR66/W677; experiment: microbe, parasite or virus in culture; format: cell-based; conditions: resistance mechanism APH(3')-II, ANT(2"), Mueller-Hinton agar, 37° C
Escherichia coli K-12 = experiment: MIC, standard serial dilution method; format: cell-based; conditions: K12; Escherichia coli K-12; Mueller-Hinton agar, 37° C; read-out: MIC
[7] = tested on: Staphylococcus aureus Ap01; experiment: MIC, standard serial dilution method; format: cell-based; conditions: resistance mechanism ANT(4'), Mueller-Hinton agar, 37° C
[8] = tested on: Corynebacterium bovis 1810; experiment: MIC, standard serial dilution method; format: cell-based; conditions: Mueller-Hinton agar, 37° C
[9] = tested on: Staphylococcus aureus 209P; experiment: MIC, standard serial dilution method; format: cell-based; conditions: Mueller-Hinton agar, 37° C

NC[C@H]1O[C@H](O[C@H]2[C@H](O)[C@@H](O[C@H]3O[C@H](CO)[C@@H](O)[C@H](N)[C@H]3O)[C@H](N)C[C@@H]2N)[C@H](N)[C@@H](F)[C@@H]1O [3'-deoxy-3'-fluorokanamycin B]
antibacterial activity compared with parent (e.g. kanamycin A) (bacteria): improved antibacterial activities, as compared to those of their corresponding parent compounds; also recorded: remarkable antibacterial activities against various gram-positive and gram-negative bacteria, including the resistant bacteria

NC[C@H]1O[C@H](O[C@H]2[C@@H](F)[C@@H](O[C@H]3O[C@H](CO)[C@H](O)[C@H](N)[C@H]3O)[C@H](N)C[C@@H]2N)[C@H](O)[C@@H](O)[C@@H]1O [5-deoxy-5-fluoro-5,4"-di-epi-kanamycin A]
antibacterial activity compared with parent (e.g. kanamycin A) (bacteria): antibacterial activities substantially as high as that of kanamycin A

NC[C@@H]1C[C@H](F)[C@@H](N)[C@@H](O[C@H]2[C@H](O)[C@@H](O[C@H]3O[C@H](CO)[C@@H](O)[C@H](N)[C@H]3O)[C@H](N)C[C@@H]2N)O1 [3',4'-dideoxy-3'-fluorokanamycin B]
antibacterial activity compared with parent (e.g. kanamycin A) (bacteria): improved antibacterial activities, as compared to those of their corresponding parent compounds

NC[C@H]1O[C@H](O[C@H]2[C@H](O)[C@@H](O[C@H]3O[C@H](CO)[C@@H](O)[C@H](N)[C@H]3O)[C@H](N)C[C@@H]2N)[C@H](O)[C@@H](F)[C@@H]1O [3'-deoxy-3'-fluorokanamycin A]
antibacterial activity compared with parent (e.g. kanamycin A) (bacteria): improved antibacterial activities, as compared to those of their corresponding parent compounds

NC[C@H]1O[C@H](O[C@H]2[C@H](O)[C@@H](O[C@H]3O[C@H](CF)[C@@H](O)[C@H](N)[C@H]3O)[C@H](N)C[C@@H]2N)[C@H](O)[C@@H](O)[C@@H]1O [6"-deoxy-6"-fluorokanamycin A]
antibacterial activity compared with parent (e.g. kanamycin A) (bacteria): antibacterial activities substantially as high as that of kanamycin A

NC[C@H]1O[C@H](O[C@H]2[C@H](O)[C@@H](O[C@H]3O[C@H](CO)[C@H](F)[C@H](N)[C@H]3O)[C@H](N)C[C@@H]2N)[C@H](O)[C@@H](O)[C@@H]1O [4"-deoxy-4"-fluoro-4"-epi-kanamycin A]
antibacterial activity compared with parent (e.g. kanamycin A) (bacteria): lower than that of kanamycin A

NC[C@H]1O[C@H](O[C@H]2[C@H](O)[C@@H](O[C@H]3O[C@H](CO)[C@@H](O)[C@H](N)[C@H]3O)[C@H](N)C[C@@H]2N)[C@H](F)C[C@@H]1O [2',3'-dideoxy-2'-fluorokanamycin A]
antibacterial activity compared with parent (e.g. kanamycin A) (bacteria): improved antibacterial activities, as compared to those of their corresponding parent compounds

NC[C@H]1O[C@H](O[C@H]2[C@@H](F)[C@@H](O[C@H]3O[C@H](CF)[C@@H](O)[C@H](N)[C@H]3O)[C@H](N)C[C@@H]2N)[C@H](O)[C@@H](O)[C@@H]1O [5,6"-dideoxy-5,6"-difluoro-5-epi-kanamycin A]
antibacterial activity compared with parent (e.g. kanamycin A) (bacteria): antibacterial activities substantially as high as that of kanamycin A

NCC[C@H](O)C(=O)N[C@@H]1C[C@H](N)[C@@H](O[C@H]2O[C@H](CN)[C@@H](O)[C@H](O)[C@H]2O)C(F)(F)[C@H]1O[C@H]1O[C@H](CO)[C@@H](O)[C@H](N)[C@H]1O [Compound 5FF-amikacin, 1-N-[(S)-4-amino-2-hydroxybutyryl]-5-deoxy-5,5-difluorokanamycin A]
MIC [1]: 3.12 µg/mL (≈ 5.15 µM)
MIC (Mycobacterium 607): 3.12 µg/mL (≈ 5.15 µM)
MIC (Escherichia coli JR225): 0.39 µg/mL (≈ 0.644 µM)
MIC [2]: 3.12 µg/mL (≈ 5.15 µM)
MIC (Proteus rettgeri GN 311): 1.56 µg/mL (≈ 2.58 µM)
MIC [3]: 3.12 µg/mL (≈ 5.15 µM)
MIC (Serratia marcescens): 6.25 µg/mL (≈ 10.3 µM)
MIC (Providencia sp. Pv 16): 3.12 µg/mL (≈ 5.15 µM)
MIC (Escherichia coli K-12 R5): 25 µg/mL (≈ 41.3 µM)
MIC (Bacillus subtilis PCI219): 1.56 µg/mL (≈ 2.58 µM)
LD50 (in vivo): > 300 mg/kg
MIC [4]: > 100 µg/mL
MIC [5]: 6.25 µg/mL (≈ 10.3 µM)
MIC [6]: 3.12 µg/mL (≈ 5.15 µM)
MIC (Escherichia coli K-12): 1.56 µg/mL (≈ 2.58 µM)
MIC [7]: > 100 µg/mL
MIC [8]: 3.12 µg/mL (≈ 5.15 µM)
MIC [9]: 3.12 µg/mL (≈ 5.15 µM)
